# Experimental data from US10738041B2, “Ferroportin inhibitors” (Vifor (International) AG, priority 2015, dated 2020).
# Several values for one entry are separate records, joined by “and”; a condition that tells them apart may be missing. Identical values can stand only once. Counter-ions that a name gives are not always drawn.
# Key:
# ferroportin (Fpn) = molecular target: T1, ferroportin (Fpn) (Mus musculus, UniProt Q9JHI9); assay: Hepcidin Internalization Assay (J774); assay type: cell-based; conditions: average of multiple measurements; inhibition of TMR-hepcidin (25 nM) internalization into J774 cells; read-out: J774 IC50
# T1 construct: host or cells: J774 mouse macrophage cell line, Fe(III)-NTA induced
# T1 sequence (Q9JHI9 1-570): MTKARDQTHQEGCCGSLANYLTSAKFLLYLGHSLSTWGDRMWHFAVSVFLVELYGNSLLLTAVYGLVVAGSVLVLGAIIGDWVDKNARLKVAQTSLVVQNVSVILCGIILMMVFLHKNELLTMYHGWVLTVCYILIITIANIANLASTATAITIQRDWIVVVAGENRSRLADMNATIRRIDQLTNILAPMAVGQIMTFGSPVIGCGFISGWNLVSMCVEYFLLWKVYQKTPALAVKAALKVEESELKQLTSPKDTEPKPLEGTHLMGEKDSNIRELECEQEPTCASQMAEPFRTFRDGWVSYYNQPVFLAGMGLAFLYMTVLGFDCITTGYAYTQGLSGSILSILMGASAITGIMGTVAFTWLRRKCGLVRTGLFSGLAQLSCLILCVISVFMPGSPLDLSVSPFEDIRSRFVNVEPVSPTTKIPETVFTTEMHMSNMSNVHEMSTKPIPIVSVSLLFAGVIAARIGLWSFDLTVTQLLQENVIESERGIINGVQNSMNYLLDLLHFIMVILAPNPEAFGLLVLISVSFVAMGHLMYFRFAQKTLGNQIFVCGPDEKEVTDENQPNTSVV
# Method in brief: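 Mouse J774 macrophages, loaded overnight with 200 μM Fe(III)NTA, incubated 2 h at 37 °C with test compounds and TMR-labeled hepcidin. Cell-associated TMR fluorescence, a proxy for hepcidin binding to Fpn and internalization, quantified by automated imaging with Hoechst nuclear counterstain after fixation; IC50 from log(inhibitor) vs. response fit, triplicates.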
# human Fpn = molecular target: T2, human Fpn (Homo sapiens, UniProt Q9NP59); assay: Biophysical Ferroportin-Hepcidin Binding Assay (fluorescence polarization); conditions: average of multiple measurements; 1 μM human Fpn, 20 nM TMR-hepcidin; read-out: FP IC50
# T2 construct: FLAG (C); made in house; host or cells: Pichia pastoris
# T2 sequence (Q9NP59 1-571): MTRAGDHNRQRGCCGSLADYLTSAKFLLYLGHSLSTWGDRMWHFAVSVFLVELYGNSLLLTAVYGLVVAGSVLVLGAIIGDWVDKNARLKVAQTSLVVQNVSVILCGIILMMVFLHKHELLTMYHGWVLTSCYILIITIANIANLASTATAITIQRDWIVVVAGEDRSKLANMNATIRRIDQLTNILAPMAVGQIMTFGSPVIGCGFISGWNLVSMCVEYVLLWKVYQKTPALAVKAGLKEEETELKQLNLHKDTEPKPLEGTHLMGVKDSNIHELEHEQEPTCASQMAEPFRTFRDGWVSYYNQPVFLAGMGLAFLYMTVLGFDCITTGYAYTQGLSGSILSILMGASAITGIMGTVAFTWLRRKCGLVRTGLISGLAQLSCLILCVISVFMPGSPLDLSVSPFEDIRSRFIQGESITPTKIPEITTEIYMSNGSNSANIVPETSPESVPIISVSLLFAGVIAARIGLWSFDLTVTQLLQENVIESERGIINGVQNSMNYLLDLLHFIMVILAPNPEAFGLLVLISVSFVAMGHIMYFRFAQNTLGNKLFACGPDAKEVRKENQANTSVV
# Method in brief: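 Purified human Fpn (C-terminal FLAG tag, expressed in Pichia pastoris) at 1 μM final was incubated with 20 nM TMR-hepcidin and serially diluted compounds in duplicate for 90 min at room temperature. Binding inhibition was read as a dose-dependent fall in FP (mP), calculated from parallel and perpendicular fluorescence.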
# human Fpn-GFP fusion = molecular target: T3, human Fpn-GFP fusion (Homo sapiens, UniProt Q9NP59); assay: Ferroportin Internalization and Degradation Assay (FACS); assay type: cell-based; conditions: average of multiple measurements, Fpn-GFP MFI, HEK-293 cell line #354, FACS; for DC50: read-out: EC50 ferroportin internalization and degradation
# T3 construct: expressed in transfected cells; host or cells: HEK-293 cell line #354 (derivative of HEK-293 Tet-ON Advanced, Clontech)
# T3 sequence (Q9NP59 1-571): T2 sequence (Q9NP59 1-571)
# Description: Growing HEK-293 #354 cells in doxycycline containing media induced expression of human Fpn-GFP fusion protein on the cell surface. […] Small molecular weight Fpn inhibitor compounds were tested for dose-dependent effects on the Fpn-GFP mean fluorescence intensity (MFI) on HEK-293 cell line #354, as described below. HEK #354 cells were harvested from ca. 80% confluent cultures, seeded at 0.6×10^6 (cells/ml in DMEM/F12 GlutaMAX™ medium (Invitrogen, Cat. 31331-028) containing 10% FBS (Clontech, Cat. 631106), 1% Penicillin-Streptomycin (Invitrogen, Cat. 15140-122), 200 μg/ml Hygromycin B (Invitrogen, Cat. 10687-010), Blasticidin 5 μg/ml, (Invitrogen, Cat. R210-01), 4 μg/ml doxycycline (Clontech, Cat. 631311), 50 μl per well of 384 well plates (Greiner; Cat. 781091) and grown at 37° C. with 5% CQ. After overnight incubation, 10 μl/well of dilution series of the test compounds were added in quadruplicates and plates were further incubated overnight at 37° C. with 5% CO2. Cells were washed once with FACS buffer (PBS containing 1% FBS, 2 mM EDTA and 0.05% NaN3), harvested in FACS buffer with 0.5 μg/ml propidium iodide (Sigma, Cat. P4864) and analyzed in a flow cytometer (CANTO™ II, BD Biosciences) equipped with high throughput sampler. Live HEK #354 cells were gated as propidium iodide negative population and analyzed for expression of Fpn-GFP.
Compound,IC50 (ferroportin (Fpn)) [µM],IC50 (human Fpn) [µM],DC50 (human Fpn-GFP fusion) [µM],EC50 (human Fpn-GFP fusion)
O=C(NCc1ncccc1F)c1cnn(C2CN(Cc3nc4ccccc4[nH]3)C2)c1 [Example 136],> 10.5,6.85,–,17.9 µM
"O=C(NCc1ncccc1F)c1csc([C@H]2[C@@H]3CN(Cc4nc5ccccc5[nH]4)C[C@@H]32)n1 [Example Compound No. 213, 2-[(1R,5S,6S)-3-(1H-1,3-Benzodiazol-2-ylmethyl)-3-azabicyclo[3.1.0]hexan-6-yl]-N-[(3-fluoropyridin-2-yl)methyl]-1,3-thiazole-4-carboxamide Trihydrochloride]",–,–,–,4.14 µM
O=C(Cn1cc(C(=O)NCc2ncccc2F)cn1)NCCc1nc2ccccc2[nH]1 [Example 117],9.7,9,–,> 25 µM and < 50 µM
O=C(NCc1ncccc1F)c1cccc(CCNCc2nc3ccccc3[nH]2)n1 [Example 133],4.56,2.5,20.7,–
O=C(NCc1ncccc1F)c1csc(CCNCc2ccc3nc[nH]c3c2)n1 [Example 139],4.79,63.1,–,> 20 µM and < 50 µM
O=C(NCc1ncccc1F)c1csc(CCN(Cc2nc3ccccc3[nH]2)Cc2nc3ccccc3[nH]2)n1 [Example 166],1.12,0.37,–,> 20 µM and < 50 µM

# Second part, the molecule after the results:
IC50 (ferroportin (Fpn)) [µM],IC50 (human Fpn) [µM],DC50 (human Fpn-GFP fusion) [µM],EC50 (human Fpn-GFP fusion),Compound
0.5,0.49,4.66,–,O=C(NCc1ccccc1)c1csc(CCNCc2nc3ccccc3[nH]2)n1 [Example 1]
3.11,1.3,25.3,–,O=C(NCc1ncccc1F)c1cccc(CCNCCc2nc3ccccc3[nH]2)n1 [Example 146]
2.23,2.9,14.4,–,O=C(NCC1CCCCN1)c1csc(CCNCc2nc3ccccc3[nH]2)n1 (stereo not shown) [Example 185]
3.73,6.9,–,> 20 µM and < 50 µM,O=C(NCc1ncccc1F)c1csc(CCNCc2cccc3nc[nH]c23)n1 [Example 140]
3.41,36.9,–,21.2 µM,O=C(NCc1ncccc1F)c1csc(CCCNc2nc3ccccc3[nH]2)n1 [Example 135]
0.533,0.56,0.813,–,O=C(NCc1ncccc1F)c1cccc(CCN(CCc2nc3ccccc3[nH]2)CCc2nc3ccccc3[nH]2)n1 [Example 147]
